Assay results as given in patent publication US6217863A, “Rationally designed polysaccharide lyases derived from heparinase I” (Massachusetts Institute of Technology, priority 1999, dated 2001).
Read-outs that look alike come from different tables or passages of the source.

Target: T1, heparinase I (heparin lyase I) of Flavobacterium heparinum, native purified (chromatofocused) enzyme, SEQ ID NO: 2 (Pedobacter heparinus, UniProt Q05819)
T1 construct: mature heparinase I from F. heparinum contains two free cysteines and not a disulfide bridge; made in house; host or cells: Flavobacterium heparinum (native enzyme purified from cell extract: hydroxyapatite, QAE-Sephadex, chromatofocusing)
Assay: Inactivation of heparinase I activity by sulfhydryl-specific reagents
Format: biochemical
Conditions: for inactivation rate constant / inactivation time constant τ: PCMB; for inactivation time constant τ: pseudo first order fit; for time to complete inactivation: PBS; for inactivation rate: 500 mM iodoacetic acid
Description: Purification of heparinase I: Lyophilized powdered extracts of F. heparinum were prepared according to the method of Yang et al. (1985). Partially purified heparinase I was prepare by step gradient elution of powdered cell extracts from a hydroxyapatite column followed by reverse adsorption on a QAE-Sephadex column Further purification of the enzyme was accomplished with a chromatofocusing, 1 cm×18 cm column with PBE resin (Pharmacia). A 1.5-2.5 ml aliquot of protein (0.5-1.5 mg) in 0.01 M phosphate (pH 6.8) was applied to the column equilibrated with 0.025 M ethanolamine (pH 9.4 with acetic acid). Elution was carried out with 150 ml of 10% Polybuffer 96 (pH 6.0 with acetic acid). […] Fractions (1.5-2.0 ml) were collected in tubes containing 0.2 ml of 0.5 M phosphate buffer at pH 6.8. Immediately after collection, the fractions were assayed for heparinase I activity. […] The active fractions were pooled, and NaCl was added from a 2.0 M aqueous solution to give a final concentration of 0.1 M. Heparinase I was concentrated and equilibrated with a buffer consisting of 0.01 M NaH2 PO4 and 0.1 M NaCl at pH 6.8 (PBS) with Centricon P-30 microconcentrators (Amicon, Mass.).
Modification with Organomercurials: The reversible, sulfhydryl specific anion, PCMB, was utilized to determine the effects of sulfhydryl modification on heparinase I activity. […] The time course of inactivation in the presence and absence of heparin also was determined.
At =Ao exp(-t/.tau.)+A.infin.
where At is the fractional activity at time t, Ao is the initial factional activity, A.infin. is the residual activity at infinite time, and .tau. is the inactivation time constant in minutes or the reciprocal rate constant. Time constants were obtained by a nonlinear least squares fit of the data to the equation.
The effect of NEM modification on heparinase I activity was examined in an attempt to elucidate structural influences on the cysteine reactivities.
In order to ascertain whether significant levels of NEM bind heparinase I, labeling studies with [^3 H]NEM were undertaken.

T1 sequence (Q05819 22-384): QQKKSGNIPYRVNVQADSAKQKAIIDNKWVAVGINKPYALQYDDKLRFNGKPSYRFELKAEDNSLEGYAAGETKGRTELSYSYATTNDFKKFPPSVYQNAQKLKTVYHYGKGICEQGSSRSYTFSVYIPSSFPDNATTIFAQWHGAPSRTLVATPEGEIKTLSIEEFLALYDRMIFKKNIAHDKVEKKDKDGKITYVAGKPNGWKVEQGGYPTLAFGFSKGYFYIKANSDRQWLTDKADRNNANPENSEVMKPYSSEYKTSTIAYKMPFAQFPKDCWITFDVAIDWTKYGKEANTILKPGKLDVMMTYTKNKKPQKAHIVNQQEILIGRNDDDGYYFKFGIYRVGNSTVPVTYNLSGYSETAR

## CCN1C(=O)C=CC1=O [NEM, N-ethylmaleimide]
1 mM NEM overnight at 4° C., read-out: activity loss
  inhibition at 1000 µM: ~15%
1 mM NEM, pH 7.0, over an 8 h period
  change in activity: little change in activity
1 mM [3H]NEM, non-denatured enzyme, 20 h, read-out: loss of activity
  inhibition at 1000 µM: 15%
0.75 h, 10 mM NEM, pH 7.0, 4° C., within 45 min, read-out: enzymatic activity lost
  inhibition at 10000 µM: 15%

## O=C(O)c1cc[c]([Hg][Cl])cc1 [PCMB]
PCMB at 2.5-100 μM, 4° C.
  reversible loss of enzyme activity: 95±5%
0.0 mg/ml heparin
  inactivation rate constant: 1.2 min⁻¹
0.5 mg/ml heparin
  inactivation rate constant: 0.2 min⁻¹
Absence of heparin
  inactivation time constant τ: 0.8 ± 1 min
Presence of 0.5 mg/ml heparin
  inactivation time constant τ: 5 ± 1 min

## NC(=O)CI [iodoacetamide]
120 mM iodoacetamide, 24 h incubation, PBS pH 7.0, 4° C.
  inhibition at 120000 µM: 15%
2, 5, 10 and 120 mM iodoacetamide in PBS, pH 7.0, 4° C., up to 24 h
  change in activity: little change in activity

## O=C(O)CI [iodoacetic acid]
0.1 mM iodoacetic acid, 4° C.
  time to complete inactivation: ≤ 15 h
1 mM iodoacetic acid, 4° C.
  time to complete inactivation: ≤ 0.25 h
No heparin
  inactivation rate: 3±1×10^-3 h^-1
Presence of 2 mg/ml heparin
  inactivation rate: 5±2×10^-4 h^-1
10 min, 2 mM iodoacetic acid in PBS, 4° C., within 10 min, read-out: heparinase I inactivated
  inhibition at 2000 µM: 95 ± 5%
Iodoacetic acid treated enzyme (heparin protection experiment)
  retention of activity relative to untreated heparinase I: 15±5%
